Patent US20130084267A1, “METHOD FOR STEM CELL DIFFERENTIATION” (THE UNIVERSITY OF QUEENSLAND, priority 2010, published 2013)

Columns and labels:
[1] = tested on: BMP signaling utilizing ALK-1, -2, -3, and -6; conditions: Inman et al. 2002; Laping et al. 2002; cited from earlier work
[2] = tested on: ALK-4, -5 and -7; conditions: Inman et al. 2002; Laping et al. 2002; cited from earlier work
[3] = tested on: hESC; assay: Morphology of hESC cultured in the presence of SB431542; assay type: cell-based, human; conditions: after 10 days incubation with SB431542
From the text: (A) hESC remain as tightly packed colonies of small cells when cultured in normal growth conditions. […] (B) When these cells are transferred to MSC media, they again change morphology and become fibroblastic. (C) MSC also have a fibroblast-like morphology. (D) hiPSC line ES4CL1 also differentiates though an epithelial-like morphology into MSC-like cells with this SB431542 inhibitor culture method.
Day −4 to −1: hESC/iPSC were dissociated from mouse embryonic fibroblast (MEF) feeder layer and seeded on either un-coated flasks (i.e., which allow for adherence (attachment) of the pluripotent cells to the surface) or matrigel-coated flasks in mTESR (defined pluripotent stem cell media, Stem Cell Technologies; i.e. serum free, feeder layer free).
Day 1: when cell colonies were approximately 40% confluent, 10 uM SB431542 inhibitor (Sigma Aldrich) was added in DMEM:F12+20% knock out serum replacement (KOSR, Invitrogen) media.
Day 2-9: 20% KOSR+SB431542 inhibitor media replaced daily.
Day 7-10: when 90%+ cells have differentiated from hESC colonies to a monolayer with epithelial-like morphology, cells were passaged using TrypleSelect. Single cells were then seeded at 3×10^4-1.5×10^5 cells/cm^2 in fetal MSC medium (DMEM-HG+10% MSC qualified FBS), then passage when nearly confluent as for MSC.

[4] = tested on: MR90; assay: qRT-PCR gene expression analysis of SB431542-treated MR90; assay type: cell-based, human; conditions: MR90, 10 μM SB431542, 10 days
Method: Pluripotent iPSC, MR90, were cultured in KOSR medium with 10 μM SB431542 treatment for 10 days. After 10 days treatment, MR90 cells were subcultured in the MSC medium for differentiating MSC cells. […] MSC are indicated as MR90-MSC P0 (passage 0). The SB431542 treated cells and MR90-MSC P0 were analyzed for gene expression. (a-d) OCT4, SOX2, MYST2 and EPCAM genes associated with iPSC pluripotency. (e-h) NCAM, MSX2, LEFTY1 and BMP4 genes expressed by cell lineages from the mesoderm. (i-j) PAX6 gene is expressed by cell lineages from the ectoderm and CDX2 gene is expressed by cell lineages from the trophectoderm. (k) GATA gene expressed by cell lineages from the endoderm. (l-o) Genes expressed by MSC (positive in CD29, CD73 and negative in the CD117, CD133). Gene expression was normalized to GAPDH. All experiments represent duplicates.
(A, B) The heat map of mRNA expression level was assayed by qRT-PCR array. ESC/iPSC cells were cultured in KOSR condition medium with 10 μM SB431542. […] (C) Relative mRNA transcripts folds change of quantitative RT-PCR analysis in the indicated cell subsets. […]
Pluripotent iPSC (MR90) were cultured in mTESR medium and KOSR medium with 10 μM SB431542 for 10 days. […] After 10 days, SB431542-treated cells and MR90-MSC P0 cells were analyzed for gene expression (see FIG. 13). […]

[5] = tested on: SMAD2/3 phosphorylation; conditions: Xu et al. 2008; cited from earlier work
[6] = tested on: MR90 cells; assay: Flow cytometry analysis of EPCAM expression in SB431542-treated MR90; assay type: cell-based, human
Method: (a) the isotype Ab control. […] The EPCAM-(CD326-) cell population have been identified as the precursors of the mesodermal cell lineage. These cells can be further differentiated into mesenchymal stem cell lineage, like MSC. The iPSC MR90 cells were cultured in mTeSR and KOSR condition medium with SB431542 for 10 days, and then subcultured into MSC medium to differentiate cells into MSC. […] Analysis was performed by flow cytometry for EPCAM expression in the SB431542-treated MR90 cells after at 10 days in culture.

[7] = tested on: iPSC; assay: Immunofluorescence marker analysis of iPSC differentiated in the presence of SB431542; assay type: cell-based, human
From the text: Nuclei were counter-stained with dapi (blue). […] Nuclei were counter-stained with dapi (blue).

[8] = tested on: MEL1; assay: qRT-PCR gene expression analysis of SB431542-treated MEL1; assay type: cell-based, human; conditions: MEL1, 10 μM SB431542, 10 days
Method: The pluripotent hESC line, MEL1, was cultured in KOSR medium with 10 μM SB431542 treatment. After 10 days treatment, MEL1 cells were subcultured in MSC medium for differentiating MSC cells. […] SB431542 treated cells and MEL1-MSC P2 were analyzed for gene expression. (a-d) OCT4, SOX2, MYST2 and EPCAM genes associated with iPSC pluripotency. (e-h) NCAM, MSX2, LEFTY1 and BMP4 genes expressed by cell lineages from the mesoderm. (i-j) PAX6 gene is expressed by cell lineages from the ectoderm and CDX2 gene is expressed by cell lineages from the trophectoderm. (k) GATA gene expressed by cell lineages from the endoderm. (l-o) Genes expressed by MSC (positive in CD29, CD73 and negative in the CD117, CD133). Gene expression was normalized to GAPDH. All experiments represent duplicates. […] (A, B) The heat map of mRNA expression level was assayed by qRT-PCR array. ESC/iPSC cells were cultured in KOSR condition medium with 10 μM SB431542. After 10 days treatment, cells were subcultured into MSC medium to differentiate cells into MSC. RNA was extracted from MEL1 and MR90 cells at day 10. […] (C) Relative mRNA transcripts folds change of quantitative RT-PCR analysis in the indicated cell subsets. All the gene expression level was normalized to GAPDH mRNA level and compared to genes level in the mTESR culture condition. […]

[9] = compared with undifferentiated cells in mTeSR medium

NC(=O)c1ccc(-c2nc(-c3ccc4c(c3)OCO4)c(-c3ccccn3)[nH]2)cc1 [SB431542, 4-[4-(1,3-benzodioxol-5-yl)-5-(2-pyridinyl)-1H-imidazol-2-yl]-benzamide]
effect on BMP signaling utilizing ALK-1, -2, -3, and -6 [1]: without affecting | inhibition of ALK-4, -5 and -7 [2]: selective and potent inhibitor | cell morphology [3]: differentiated into an epithelial-like monolayer | differentiation into germ layer lineages (lineage gene expression) [4]: induced MR90 differentiate into mesoderm (MSX1, MSX2, NCAM1, BMP4), ectoderm (PAX6) and trophectoderm (CDX2) | relative mRNA levels of pluripotent genes (Pou5F (Oct4), SOX2, MYST2) [4, 9]: decreased | effect on SMAD2/3 phosphorylation and NANOG promoter activity in hESC [5]: inhibiting SMAD2/3 phosphorylation and subsequent decrease in NANOG promoter activity | population of EPCAM+ MR90 cell ([6]; KOSR medium with SB431542, 10 days, decreased from 22.84%): 5.94% | population of EPCAM+ MR90 cell ([6]; MTESR medium with SB431542, 10 days, decreased from 45%): 8.14% | expression of pluripotency markers (Oct4, Nanog, Stella, SSEA3, Tra 1-60 and Tra 1-81) [7]: decreased expression | differentiation into germ layer lineages (lineage gene expression) [8]: enhanced MEL1 differentiation into mesoderm (MSX1, MSX2, SOX9, NCAM1, BMP4), ectoderm (PAX6), trophectoderm (CDX2), endoderm (GATA4) and MSC cells (CD73, CD29) | relative mRNA levels of pluripotent genes (Pou5F (Oct4), SOX2, MYST2) [8, 9]: decreased
